Experiments:
[1] = system: Triticum aestivum; experiment: Effect on antioxidant enzyme system in Triticum aestivum (wheat) shoots assessed as ascorbate peroxidase activity per mg protein compound administered at rate of 14 mf/flat measured 72 hr post treatment (reference value: 17.2 nmol/s per mg protein); assay type: functional
[2] = system: Triticum aestivum; experiment: Reduction in glutathione S-transferase activity in Triticum aestivum (wheat) shoots compound administered at rate of 14 mf/flat measured 24 hr post treatment; assay type: functional; parameters: scale not given: the % may be the effect or the level left
[3] = system: Lolium multiflorum; experiment: Effect on antioxidant enzyme system in Lolium multiflorum (Italian ryegrass) shoots assessed as glutathione S-transferase activity per mg protein compound administered at rate of 14 mf/flat measured 48 hr post treatment (reference value: 0.37 nmol/s per mg protein); assay type: functional
[4] = system: Shoot; experiment: Drug level in Lolium multiflorum (Italian ryegrass) shoots compound administered at rate of 14 mf/flat measured 48 hr post treatment by HPLC; assay type: ADME
[5] = system: Lolium multiflorum; experiment: Increase in glutathione S-transferase activity in Lolium multiflorum (Italian ryegrass) compound administered at rate of 14 mf/flat measured 72 hr post treatment; assay type: functional
[6] = system: Triticum aestivum; experiment: Effect on MDA content in Triticum aestivum (wheat) shoots compound administered at rate of 14 mf/flat measured 48 hr post treatment (reference value: 0.053 uM/L); assay type: functional
[7] = system: Triticum aestivum; experiment: Effect on MDA content in Triticum aestivum (wheat) shoots compound administered at rate of 14 mf/flat measured 24 hr post treatment (reference value: 0.054 uM/L); assay type: functional
[8] = system: Triticum aestivum; experiment: Effect on photosynthetic activity in Triticum aestivum (wheat) shoots assessed as leaf net photosynthesis rate measured by CO2 production compound administered at rate of 14 mf/flat measured 24 hr post treatment (reference value: 1.35 umol/m2/s); assay type: functional
[9] = system: Lolium multiflorum; experiment: Effect on antioxidant enzyme system in Lolium multiflorum (Italian ryegrass) shoots assessed as catalase activity per mg protein compound administered at rate of 14 mf/flat measured 24 hr post treatment (reference value: 0.13 nmol/s per mg protein); assay type: functional
[10] = system: Triticum aestivum; experiment: Effect on photosynthetic activity in Triticum aestivum (wheat) shoots assessed as dark respiration rate measured by CO2 production compound administered at rate of 14 mf/flat measured 24 hr post treatment (reference value: -1.35 umol/m2/s); assay type: functional
[11] = system: Triticum aestivum; experiment: Effect on antioxidant enzyme system in Triticum aestivum (wheat) shoots assessed as catalase activity per mg protein compound administered at rate of 14 mf/flat measured 24 hr post treatment (reference value: 0.1 nmol/s per mg protein); assay type: functional
[12] = system: Triticum aestivum; experiment: Effect on photosynthetic activity in Triticum aestivum (wheat) shoots assessed as leaf net photosynthesis rate measured by CO2 production compound administered at rate of 14 mf/flat measured 72 hr post treatment (reference value: 1.46 umol/m2/s); assay type: functional
[13] = system: Triticum aestivum; experiment: Effect on antioxidant enzyme system in Triticum aestivum (wheat) shoots assessed as dehydroascorbate reductase activity per mg protein compound administered at rate of 14 mf/flat measured 24 hr post treatment (reference value: 4.6 nmol/s per mg protein); assay type: functional
[14] = system: Triticum aestivum; experiment: Increase in antioxidant enzyme system in Triticum aestivum (wheat) shoots assessed as increase in glutathione reductase activity compound administered at rate of 14 mf/flat measured 24 hr post treatment; assay type: functional
[15] = system: Lolium multiflorum; experiment: Increase in glutathione S-transferase activity in Lolium multiflorum (Italian ryegrass) compound administered at rate of 14 mf/flat measured 48 hr post treatment; assay type: functional
[16] = system: Lolium multiflorum; experiment: Effect on antioxidant enzyme system in Lolium multiflorum (Italian ryegrass) shoots assessed as ascorbate peroxidase activity per mg protein compound administered at rate of 14 mf/flat measured 48 hr post treatment (reference value: 11.6 nmol/s per mg protein); assay type: functional
[17] = system: Shoot; experiment: Drug level in Lolium multiflorum (Italian ryegrass) shoots compound administered at rate of 14 mf/flat measured 96 hr post treatment by HPLC; assay type: ADME
[18] = system: Lolium multiflorum; experiment: Increase in antioxidant enzyme system in Lolium multiflorum (Italian ryegrass) shoots shoots assessed as increase in glutathione reductase activity compound administered at rate of 14 mf/flat measured 24 hr post treatment; assay type: functional
[19] = system: Lolium multiflorum; experiment: Effect on antioxidant enzyme system in Lolium multiflorum (Italian ryegrass) shoots assessed as catalase activity per mg protein compound administered at rate of 14 mf/flat measured 48 hr post treatment (reference value: 0.10 nmol/s per mg protein); assay type: functional
[20] = system: Triticum aestivum; experiment: Effect on antioxidant enzyme system in Triticum aestivum (wheat) shoots assessed as catalase activity per mg protein compound administered at rate of 14 mf/flat measured 48 hr post treatment (reference value: 0.12 nmol/s per mg protein); assay type: functional
[21] = system: Triticum aestivum; experiment: Effect on antioxidant enzyme system in Triticum aestivum (wheat) shoots assessed as glutathione reductase activity per mg protein compound administered at rate of 14 mf/flat measured 48 hr post treatment (reference value: 1.1 nmol/s per mg protein); assay type: functional
[22] = system: Lolium multiflorum; experiment: Effect on photosynthetic activity in Lolium multiflorum (Italian ryegrass) shoots assessed as dark respiration rate measured by CO2 production compound administered at rate of 14 mf/flat measured 48 hr post treatment (reference value: -1.68 umol/m2/s); assay type: functional
[23] = system: Lolium multiflorum; experiment: Effect on antioxidant enzyme system in Lolium multiflorum (Italian ryegrass) shoots assessed as glutathione reductase activity per mg protein compound administered at rate of 14 mf/flat measured 48 hr post treatment (reference value: 1.1 nmol/s per mg protein); assay type: functional
[24] = system: Lolium multiflorum; experiment: Drug level in Lolium multiflorum (Italian ryegrass) compound administered at rate of 14 mf/flat measured 24 hr post treatment by HPLC; assay type: ADME, organism-based; settings: in vivo
[25] = system: Triticum aestivum; experiment: Increase in antioxidant enzyme system in Triticum aestivum (wheat) shoots assessed as increase in ascorbate peroxidase activity compound administered at rate of 14 mf/flat measured 48 hr post treatment; assay type: functional
[26] = system: Triticum aestivum; experiment: Increase in antioxidant enzyme system in Triticum aestivum (wheat) shoots assessed as increase in dehydroascorbate reductase activity compound administered at rate of 14 mf/flat measured 48 hr post treatment; assay type: functional
[27] = system: Lolium multiflorum; experiment: Effect on MDA content in Lolium multiflorum (Italian ryegrass) shoots compound administered at rate of 14 mf/flat measured 24 hr post treatment (reference value: 0.68 uM/L); assay type: functional
[28] = system: Lolium multiflorum; experiment: Effect on antioxidant enzyme system in Lolium multiflorum (Italian ryegrass) shoots assessed as catalase activity per mg protein compound administered at rate of 14 mf/flat measured 72 hr post treatment (reference value: 0.12 nmol/s per mg protein); assay type: functional
[29] = system: Lolium multiflorum; experiment: Effect on antioxidant enzyme system in Lolium multiflorum (Italian ryegrass) shoots assessed as glutathione reductase activity per mg protein compound administered at rate of 14 mf/flat measured 72 hr post treatment (reference value: 1.2 nmol/s per mg protein); assay type: functional
[30] = system: Shoot; experiment: Drug level in Lolium multiflorum (Italian ryegrass) shoots compound administered at rate of 14 mf/flat measured 24 hr post treatment by HPLC; assay type: ADME
[31] = system: Shoot; experiment: Drug level in Triticum aestivum (wheat) shoots compound administered at rate of 14 mf/flat measured 72 hr post treatment by HPLC; assay type: ADME
[32] = system: Shoot; experiment: Drug level in Triticum aestivum (wheat) shoots compound administered at rate of 14 mf/flat measured 48 hr post treatment by HPLC; assay type: ADME
[33] = system: Lolium multiflorum; experiment: Increase in antioxidant enzyme system in Lolium multiflorum (Italian ryegrass) shoots assessed as increase in ascorbate peroxidase activity compound administered at rate of 14 mf/flat measured 48 hr post treatment; assay type: functional

SMILES	Activity [1] [nmol/s/mg protein]	Activity [2] [%]	Activity [3] [nmol/s/mg protein]	Drug uptake [4] [ppm]	Activity [5] [%]	Activity [6] [µM]	Activity [7] [µM]	Activity [8] [micromol/m2/s]	Activity [9] [nmol/s]	Activity [10] [micromol/m2/s]	Activity [11] [nmol/s/mg protein]	Activity [12] [micromol/m2/s]	Activity [13] [nmol/s/mg protein]	Activity [14] [%]	Activity [15] [%]	Activity [16] [nmol/s/mg protein]	Drug uptake [17] [ppm]	Activity [18] [%]	Activity [19] [nmol/s/mg protein]	Activity [20] [nmol/s]	further results
CCNc1nc(Cl)nc(NC(C)C)n1 [ATRAZINE]	18	37	0.46	5.9	24	0.53	0.55	-0.52	0.13	-0.51	0.1	0	5.5	36	103	12.2	4.22	27	0.1	0.11	Activity [21]: 1.1 nmol/s/mg protein; Activity [22]: -1.56 micromol/m2/s; Activity [23]: 1 nmol/s/mg protein; Drug uptake [24]: 4.75 ppm; Activity [25]: 28%; Activity [26]: 15%; Activity [27]: 0.85 µM; Activity [28]: 0.13 nmol/s/mg protein; Activity [29]: 1.2 nmol/s/mg protein; Drug uptake [30]: 6 ppm; Drug uptake [31]: 1.94 ppm; Drug uptake [32]: 5.67 ppm; Activity [33]: 26%
O=[N+]([O-])c1ccc(Oc2ccc(C(F)(F)F)cc2[N+](=O)[O-])cc1 [FLUORODIFEN]	17.2	15	0.5	1.17	35	0.05	0.05	1.15	0.11	-0.82	0.11	1.25	5	36	371	14	0.36	72	0.11	0.12	Activity [21]: 1.2 nmol/s/mg protein; Activity [22]: -1.36 micromol/m2/s; Activity [23]: 1 nmol/s/mg protein; Drug uptake [24]: 0.72 ppm; Activity [25]: 10%; Activity [26]: 11%; Activity [27]: 0.64 µM; Activity [28]: 0.13 nmol/s/mg protein; Activity [29]: 1.1 nmol/s/mg protein; Drug uptake [30]: 1.4 ppm; Drug uptake [31]: 0.2 ppm; Drug uptake [32]: 0.27 ppm; Activity [33]: 35%

Source: ChEMBL document CHEMBL3045349, “A comparative study on the interference of two herbicides in wheat and italian ryegrass and on their antioxidant activities and detoxification rates” (J Agric Food Chem, 2011)
